Data from the supplement of paper PMC10307832.

Assays:
AZ505 = compound: C1CCC(CC1)N(CCNCCC2=C3C(=C(C=C2)O)NC(=O)CO3)C(=O)CCNCCC4=CC(=C(C=C4)Cl)Cl [AZ505]; experiment: relative viability (nuclei count vs DMSO), 5 days (fraction); higher = more cells survive
Procedure, shortened: (§1)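 Following overnight incubation at 37 °C, lung cancer cell lines in 1536-well plates were pinned with five library-drug doses (not always all listed) in √10 steps on vehicle-anchored plates. The cells then spent 5 days without medium change before a combined fix, permeabilisation and Hoechst stain, 4× imaging and MetaXpress nuclear counts. Viability is the treated-to-vehicle ratio of nuclei, taken as the median across plates. Only plates with control CV below 25% and at least one doubling passed.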

Dactolisib = compound: Cn1c(=O)n(-c2ccc(C(C)(C)C#N)cc2)c2c3cc(-c4cnc5ccccc5c4)ccc3ncc21 [Dactolisib]; experiment: as above
Procedure, shortened: as §1

Row | Cell Line | relative viability (AZ505; 0.08 µM) | relative viability (AZ505; 0.253 µM) | relative viability (AZ505; 0.8 µM) | relative viability (AZ505; 2.53 µM) | relative viability (AZ505; 8 µM) | relative viability (Dactolisib; 0.002 µM) | relative viability (Dactolisib; 0.006325 µM) | relative viability (Dactolisib; 0.02 µM) | relative viability (Dactolisib; 0.06325 µM) | relative viability (Dactolisib; 0.2 µM)
1 | NCI-H1755 | 0.93 | 1.05 | 0.962 | 0.98 | 0.958 | 1.04 | 0.976 | 0.963 | 0.887 | 0.742
2 | NCI-H1792 | 0.757 | – | 0.803 | 0.947 | 0.945 | 1.04 | 0.635 | 0.551 | 0.317 | 0.175
3 | NCI-H1793 | 0.805 | 0.883 | 0.83 | 0.768 | 0.976 | 0.807 | 0.569 | 0.474 | 0.242 | 0.241
4 | NCI-H1915 | 0.954 | 1.06 | 0.945 | 0.942 | 0.949 | 1.02 | 1.03 | 1.02 | 0.657 | 0.579
5 | NCI-H1944 | 0.949 | 0.989 | 1.06 | 0.861 | 1.02 | 1.12 | 0.973 | 0.917 | 0.387 | 0.402
6 | NCI-H1975 | 0.831 | 0.848 | 0.951 | 0.901 | 0.972 | 0.922 | 0.957 | 0.824 | 0.483 | 0.315
7 | NCI-H1993 | 0.871 | 0.888 | 0.903 | 1.02 | 1.09 | 1.01 | 0.702 | 0.663 | 0.59 | 0.603
8 | NCI-H2009 | 0.987 | 0.986 | 0.998 | 0.921 | 0.952 | 1.05 | 0.983 | 1.04 | 0.598 | 0.366
9 | NCI-H2023 | 0.901 | 0.936 | 0.931 | 0.923 | 0.957 | 0.827 | 0.875 | 0.579 | 0.166 | 0.12
10 | NCI-H2085 | 0.872 | 0.953 | 0.894 | 0.971 | 1.05 | 1.02 | 0.986 | 0.96 | 0.553 | 0.387
11 | NCI-H2087 | 0.883 | 0.987 | 0.978 | 0.996 | 0.982 | 1.38 | 1.22 | 1.07 | 0.657 | 0.437
12 | NCI-H2126 | 0.993 | 0.945 | 0.971 | 0.984 | 0.988 | 1.09 | 0.936 | 0.892 | 0.638 | 0.488
13 | NCI-H2170 | 0.953 | 1.01 | 0.932 | 0.998 | 0.976 | 1.02 | 0.971 | 0.96 | 0.648 | 0.447
